Here are results for five compounds from ChEMBL document CHEMBL5537135, “Novel antimicrobial peptides modified with fluorinated sulfono-γ-AA having high stability and targeting multidrug-resistant bacteria infections” (Eur J Med Chem, 2024).

Values after ≈ are worked out from the molar mass of the structure shown. Numbered stars: 1 amine (or outer) side, 2 acyl side, 3 side chain; on linkers, the order of the positions; unused ones are H or OH. Square brackets hold non-standard residues; d marks the D form. Peptide text beside a SMILES is read from it. * marks the point of attachment. X4 = N[C@@H](Cc1ccccc1)CN(CC(=O)[*:2])[*:1]; X7 = O=S(=O)(c1cc(C(F)(F)F)cc(C(F)(F)F)c1)*; X1 = O=S(=O)(c1ccc(C(F)(F)F)cc1)*

One data set relates to Escherichia coli. As to the kind of experiment: Antimicrobial activity against Escherichia coli ATCC 25922 assessed as inhibition of visible bacterial growth incubated for 18 hrs by broth-dilution method. Type of data set: functional.
The subject of data set [1] is Pseudomonas aeruginosa. As to the kind of experiment: Antimicrobial activity against Pseudomonas aeruginosa ATCC 27853 assessed as inhibition of visible bacterial growth incubated for 18 hrs by broth-dilution method. Type of data set: functional.
A further data set concerns Acinetobacter baumannii. Nature of the data set: Antimicrobial activity against Acinetobacter baumannii ATCC 19606 assessed as inhibition of visible bacterial growth incubated for 18 hrs by broth-dilution method. Type of data set: functional.
Another data set has as its system Salmonella typhimurium. As to the kind of experiment: Antimicrobial activity against Salmonella typhimurium ATCC 14028 assessed as inhibition of visible bacterial growth incubated for 18 hrs by broth-dilution method. Type of data set: functional, Salmonella enterica subsp. enterica serovar Typhimurium. Conditions: Salmonella enterica.
Data set [2] has as its system Staphylococcus aureus. As to the kind of experiment: Antimicrobial activity against Staphylococcus aureus ATCC 25923 assessed as inhibition of visible bacterial growth incubated for 18 hrs by broth-dilution method. It is filed as functional.
The subject of data set [3] is Staphylococcus epidermidis. As to the kind of experiment: Antimicrobial activity against Staphylococcus epidermidis ATCC 12228 assessed as inhibition of visible bacterial growth incubated for 18 hrs by broth-dilution method. Type of data set: functional.
Another data set has as its system Bacillus subtilis. Nature of the data set: Antimicrobial activity against Bacillus subtilis ATCC 23857 assessed as inhibition of visible bacterial growth incubated for 18 hrs by broth-dilution method. It is filed as functional.
Data set [4] relates to Staphylococcus aureus. Nature of the data set: Antimicrobial activity against methicillin-resistant Staphylococcus aureus ATCC 33591 assessed as inhibition of visible bacterial growth incubated for 18 hrs by broth-dilution method. It is filed as functional.
A further data set has as its system Erythrocyte. Nature of the data set: Hemolytic activity against mouse Red blood cell incubated for 1 hr. Type of data set: toxicity, cell-based.
Data set [5] has as its system Staphylococcus aureus. As to the kind of experiment: Antimicrobial activity against Staphylococcus aureus ATCC 25923 assessed as fold change in MIC in presence of salt solution. Type of data set: functional.
The subject of data set [6] is Staphylococcus aureus. Nature of the data set: Antimicrobial activity against Staphylococcus aureus ATCC 25923 assessed as reduction in bacterial growth in presence of Ca2+. Type of data set: functional.
Data set [7] in a line: Stability in human serum assessed as half life measured for 5 hrs by RP-HPLC analysis. It is filed as ADME, cell-free.
The subject of data set [8] is Staphylococcus aureus. As to the kind of experiment: Antimicrobial activity against methicillin-resistant Staphylococcus aureus 1 assessed as inhibition of visible bacterial growth incubated for 18 hrs by broth-dilution method. It is filed as functional.
Data set [9] has as its system Staphylococcus aureus. As to the kind of experiment: Antimicrobial activity against methicillin-resistant Staphylococcus aureus 2 assessed as inhibition of visible bacterial growth incubated for 18 hrs by broth-dilution method. It is filed as functional.
In data set [10] the test system is Staphylococcus aureus. As to the kind of experiment: Antimicrobial activity against methicillin-resistant Staphylococcus aureus 3 assessed as inhibition of visible bacterial growth incubated for 18 hrs by broth-dilution method. It is filed as functional.
For data set [11], the system named is Staphylococcus aureus. Nature of the data set: Antimicrobial activity against methicillin-resistant Staphylococcus aureus 4 assessed as inhibition of visible bacterial growth incubated for 18 hrs by broth-dilution method. It is filed as functional.
Data set [12] concerns Staphylococcus aureus. Nature of the data set: Antimicrobial activity against methicillin-resistant Staphylococcus aureus 5 assessed as inhibition of visible bacterial growth incubated for 18 hrs by broth-dilution method. It is filed as functional.
Data set [13] concerns Staphylococcus aureus. As to the kind of experiment: Antimicrobial activity against methicillin-resistant Staphylococcus aureus 6 assessed as inhibition of visible bacterial growth incubated for 18 hrs by broth-dilution method. It is filed as functional.
For data set [14], the system named is Staphylococcus aureus. As to the kind of experiment: Antimicrobial activity against methicillin-resistant Staphylococcus aureus 7 assessed as inhibition of visible bacterial growth incubated for 18 hrs by broth-dilution method. Type of data set: functional.
The test system of data set [15] is Staphylococcus aureus. As to the kind of experiment: Antimicrobial activity against methicillin-resistant Staphylococcus aureus 8 assessed as inhibition of visible bacterial growth incubated for 18 hrs by broth-dilution method. It is filed as functional.
Data set [16] concerns Staphylococcus aureus. As to the kind of experiment: Antimicrobial activity against methicillin-resistant Staphylococcus aureus 9 assessed as inhibition of visible bacterial growth incubated for 18 hrs by broth-dilution method. Type of data set: functional.
Data set [17] concerns Staphylococcus aureus. As to the kind of experiment: Antimicrobial activity against methicillin-resistant Staphylococcus aureus 10 assessed as inhibition of visible bacterial growth incubated for 18 hrs by broth-dilution method. Type of data set: functional.
Data set [18] relates to Pseudomonas aeruginosa. Nature of the data set: Antimicrobial activity against multidrug-resistant Pseudomonas aeruginosa 050 assessed as inhibition of visible bacterial growth incubated for 18 hrs by broth-dilution method. It is filed as functional.
Data set [19] relates to Pseudomonas aeruginosa. As to the kind of experiment: Antimicrobial activity against multidrug-resistant Pseudomonas aeruginosa 061 assessed as inhibition of visible bacterial growth incubated for 18 hrs by broth-dilution method. It is filed as functional.
The subject of data set [20] is Pseudomonas aeruginosa. As to the kind of experiment: Antimicrobial activity against multidrug-resistant Pseudomonas aeruginosa 073 assessed as inhibition of visible bacterial growth incubated for 18 hrs by broth-dilution method. Type of data set: functional.
Data set [21] deals with Pseudomonas aeruginosa. Nature of the data set: Antimicrobial activity against multidrug-resistant Pseudomonas aeruginosa 085 assessed as inhibition of visible bacterial growth incubated for 18 hrs by broth-dilution method. It is filed as functional.
Data set [22] has as its system Pseudomonas aeruginosa. As to the kind of experiment: Antimicrobial activity against multidrug-resistant Pseudomonas aeruginosa 119 assessed as inhibition of visible bacterial growth incubated for 18 hrs by broth-dilution method. Type of data set: functional.
Data set [23] has as its system Pseudomonas aeruginosa. Nature of the data set: Antimicrobial activity against multidrug-resistant Pseudomonas aeruginosa 124 assessed as inhibition of visible bacterial growth incubated for 18 hrs by broth-dilution method. It is filed as functional.
The subject of data set [24] is Pseudomonas aeruginosa. As to the kind of experiment: Antimicrobial activity against multidrug-resistant Pseudomonas aeruginosa 125 assessed as inhibition of visible bacterial growth incubated for 18 hrs by broth-dilution method. Type of data set: functional.
The test system of data set [25] is Pseudomonas aeruginosa. Nature of the data set: Antimicrobial activity against multidrug-resistant Pseudomonas aeruginosa 156 assessed as inhibition of visible bacterial growth incubated for 18 hrs by broth-dilution method. Type of data set: functional.
Data set [26] has as its system Pseudomonas aeruginosa. As to the kind of experiment: Antimicrobial activity against multidrug-resistant Pseudomonas aeruginosa 157 assessed as inhibition of visible bacterial growth incubated for 18 hrs by broth-dilution method. It is filed as functional.
The test system of data set [27] is Pseudomonas aeruginosa. Nature of the data set: Antimicrobial activity against multidrug-resistant Pseudomonas aeruginosa 516 assessed as inhibition of visible bacterial growth incubated for 18 hrs by broth-dilution method. It is filed as functional.

On to `CC(C)C[C@H](NC(=O)[C@H](CC(C)C)NC(=O)[C@H](CCCCN)NC(=O)[C@H](CCCCN)NC(=O)[C@H](CC(C)C)NC(=O)[C@H](CC(C)C)NC(=O)[C@H](CCCCN)NC(=O)CN(C[C@@H](N)Cc1ccccc1)S(=O)(=O)c1ccc(C(F)(F)F)cc1)C(N)=O` (X1-[X4]KLLKKLL-NH2), for which the MIC was determined as 8 µg/mL (≈ 6.39 µM) with Escherichia coli; 8 µg/mL (≈ 6.39 µM) in the data set on Pseudomonas aeruginosa [1]; 16 µg/mL (≈ 12.8 µM) in the data set with Acinetobacter baumannii; 8 µg/mL (≈ 6.39 µM) with Salmonella typhimurium; 8 µg/mL (≈ 6.39 µM) in the data set on Staphylococcus aureus [2]; 4 µg/mL (≈ 3.19 µM) in [3]. In addition, the MIC in the data set on Bacillus subtilis came to 4 µg/mL (≈ 3.19 µM); with Staphylococcus aureus [4], 4 µg/mL (≈ 3.19 µM); in the data set with Staphylococcus aureus [6], 32 µg/mL. Also, the MHC with Erythrocyte amounted to 32 µg/mL. For the same compound, the “fold change (FC)” value with Staphylococcus aureus [5] came to 0.25. Also, in data set [7], the half-life was 7.96 h.
As for `CC(C)C[C@H](NC(=O)[C@H](CC(C)C)NC(=O)[C@H](CCCCN)NC(=O)[C@H](CCCCN)NC(=O)[C@H](CC(C)C)NC(=O)[C@H](C)NC(=O)[C@H](CCCCN)NC(=O)CN(C[C@@H](N)Cc1ccccc1)S(=O)(=O)c1cc(C(F)(F)F)cc(C(F)(F)F)c1)C(N)=O` (X7-[X4]KALKKLL-NH2), the MIC with Escherichia coli stood at 16 µg/mL (≈ 12.5 µM); in the data set on Pseudomonas aeruginosa [1], 16 µg/mL (≈ 12.5 µM); with Acinetobacter baumannii it was 16 µg/mL (≈ 12.5 µM); with Salmonella typhimurium, 8 µg/mL (≈ 6.26 µM); in the data set with Staphylococcus aureus [2], 8 µg/mL (≈ 6.26 µM); in data set [3], 8 µg/mL (≈ 6.26 µM). In addition, the MIC with Bacillus subtilis is 4 µg/mL (≈ 3.13 µM); in the data set on Staphylococcus aureus [4], 8 µg/mL (≈ 6.26 µM). Besides, the MHC in the data set on Erythrocyte stood at 128 µg/mL.
For `CC(C)C[C@H](NC(=O)[C@H](CC(C)C)NC(=O)[C@H](CCCCN)NC(=O)[C@H](CCCCN)NC(=O)[C@H](CC(C)C)NC(=O)[C@H](CC(C)C)NC(=O)[C@H](CCCCN)NC(=O)CN(C[C@@H](N)Cc1ccccc1)S(=O)(=O)c1cc(C(F)(F)F)cc(C(F)(F)F)c1)C(N)=O` (X7-[X4]KLLKKLL-NH2), the MIC worked out at 8 µg/mL (≈ 6.06 µM) in the data set on Escherichia coli; 8 µg/mL (≈ 6.06 µM) in the data set with Pseudomonas aeruginosa [1]; 16 µg/mL (≈ 12.1 µM) with Acinetobacter baumannii; 8 µg/mL (≈ 6.06 µM) in the data set with Salmonella typhimurium; 4 µg/mL (≈ 3.03 µM) in the data set with Staphylococcus aureus [2]; 8 µg/mL (≈ 6.06 µM) in [3]. For the same compound, the MIC came out at 4 µg/mL (≈ 3.03 µM) with Bacillus subtilis and 8 µg/mL (≈ 6.06 µM) with Staphylococcus aureus [4]. In the data set on Erythrocyte, this compound showed an MHC of 32 µg/mL. The half-life in data set [7] was 5.6 h.
Take `CC1(C)S[C@@H]2[C@H](NC(=O)[C@H](N)c3ccc(O)cc3)C(=O)N2[C@H]1C(=O)O` [AMOXICILLIN]: the MIC with Escherichia coli was found to be 4 µg/mL (≈ 10.9 µM); with Pseudomonas aeruginosa [1], 256 µg/mL (≈ 701 µM); in the data set on Acinetobacter baumannii it was 128 µg/mL (≈ 350 µM); with Salmonella typhimurium it was 256 µg/mL (≈ 701 µM); in the data set with Staphylococcus aureus [2], 1 µg/mL (≈ 2.74 µM); in [3] it was 256 µg/mL (≈ 701 µM). Also, the MIC in the data set with Bacillus subtilis was 256 µg/mL (≈ 701 µM); in the data set on Staphylococcus aureus [4], 128 µg/mL (≈ 350 µM); in the data set with Staphylococcus aureus [8], 4 µg/mL (≈ 10.9 µM); in the data set with Staphylococcus aureus [9] it was 4 µg/mL (≈ 10.9 µM); with Staphylococcus aureus [10], 4 µg/mL (≈ 10.9 µM); in the data set with Staphylococcus aureus [11] it was 8 µg/mL (≈ 21.9 µM). For the same compound, the minimal inhibitory concentration (MIC) in the data set with Staphylococcus aureus [12] was determined as 32 µg/mL (≈ 87.6 µM); with Staphylococcus aureus [13] it was 32 µg/mL (≈ 87.6 µM); with Staphylococcus aureus [14], 16 µg/mL (≈ 43.8 µM); with Staphylococcus aureus [15], 4 µg/mL (≈ 10.9 µM); in the data set with Staphylococcus aureus [16], 8 µg/mL (≈ 21.9 µM); with Staphylococcus aureus [17], 32 µg/mL (≈ 87.6 µM).
For H-FLKLLKKLL-NH2, the MIC is 32 µg/mL with Escherichia coli; 8 µg/mL in the data set on Pseudomonas aeruginosa [1]; 16 µg/mL with Acinetobacter baumannii; 16 µg/mL in the data set with Salmonella typhimurium; 16 µg/mL in the data set on Staphylococcus aureus [2]; 16 µg/mL in data set [3]. The MIC in the data set on Bacillus subtilis came out at 4 µg/mL; in the data set with Staphylococcus aureus [4] it was 16 µg/mL; with Pseudomonas aeruginosa [18], 8 µg/mL; in the data set on Pseudomonas aeruginosa [19], 8 µg/mL; in the data set with Pseudomonas aeruginosa [20], 8 µg/mL; in the data set on Pseudomonas aeruginosa [21] it was 8 µg/mL. Also, the MIC in the data set with Pseudomonas aeruginosa [22] turned out to be 4 µg/mL; in the data set with Pseudomonas aeruginosa [23], 8 µg/mL; with Pseudomonas aeruginosa [24], 8 µg/mL; in the data set on Pseudomonas aeruginosa [25], 8 µg/mL; with Pseudomonas aeruginosa [26], 8 µg/mL; in the data set with Pseudomonas aeruginosa [27], 8 µg/mL. For the same compound, the MIC in the data set with Staphylococcus aureus [8] was 4 µg/mL; in the data set with Staphylococcus aureus [9] it was 8 µg/mL; in the data set on Staphylococcus aureus [10], 4 µg/mL; in the data set on Staphylococcus aureus [11] it was 8 µg/mL; in the data set on Staphylococcus aureus [12], 8 µg/mL; in the data set on Staphylococcus aureus [13] it was 8 µg/mL. For the same compound, the MIC in the data set on Staphylococcus aureus [14] was found to be 4 µg/mL; with Staphylococcus aureus [15] it was 8 µg/mL; in the data set with Staphylococcus aureus [16] it was 4 µg/mL; in the data set on Staphylococcus aureus [17] it was 4 µg/mL. In addition, the MHC in the data set with Erythrocyte is 256 µg/mL. The half-life in data set [7] was 1.09 h.
